Measured values taken from patent US6924300B2, “Oxyiminoalkanoic acid derivatives” (Takeda Chemical Industries, Ltd., priority 1998, dated 2005).
Where two headings read alike, the source gives them in different places.

Experiments:
KKA^y mice = assay: Hypoglycemic and hypolipidemic actions in mice (test compound in diet, plasma glucose and triglyceride); assay type: in vivo; details: Mus musculus, feed or water, 96 h, 4 days, compared with non-treatment group
Procedure: A test compound was added to a powdered diet (CE-2, Clea Japan Inc.) at a concentration of 0.01%, and the diet was given ad libitum to KKA^y mice (9 to 12 weeks old, 5 animals in a group), a model of obese Type II diabetes mellitus (non-insulin dependent diabetes mellitus), for 4 days. During this period, water was given ad libitum. Blood was sampled from orbital venous plexus and plasma glucose and triglyceride levels were determined enzymatically using L type Wako Glu2 (Wako Pure Chemical In. Ltd.) and Iatro-MA701 TG kit (Iatron Laboratories Inc.) or L type Wako TG.H (Wako Pure Chemical Ind. Ltd.), respectively.
The value of each treatment group is represented as % reduction when compared with the non-treatment group, and summarized in Table 1.

[1] = 0.01% in diet, plasma triglyceride, Iatro-MA701 TG kit, read-out: Hypotriglyceridemic effect (% reduction)
[2] = 0.01% in powdered diet, plasma glucose, read-out: Hypoglycemic effect (% reduction)

Row | melting point | Structure (SMILES) | inhibition in vivo at 0.01 % (KKA^y mice; [1]) | inhibition in vivo at 0.01 % (KKA^y mice; [2])
1 |  | Cc1oc(-c2ccccc2)nc1COc1ccc(CO/N=C(\C(=O)O)c2ccccc2)cc1 [Example 1, Z-2-[4-(5-methyl-2-phenyl-4-oxazolylmethoxy)benzyloxyimino]-2-phenylacetic acid] | 35% | 36%
2 |  | Cc1oc(-c2ccccc2)nc1COc1ccc(CO/N=C(\CCC(=O)O)c2ccccc2)cc1 [Example 7, E-4-[4-(5-methyl-2-phenyl-4-oxazolylmethoxy)benzyloxyimino]-4-phenylbutyric acid] | 61% | 42%
3 | 75 to 77 °C | Cc1oc(-c2ccco2)nc1COc1ccc(CO/N=C(\CCCCCCC(=O)O)c2ccccc2)cc1 [Example 129, E-8-[4-[2-(2-furyl)-5-methyl-4-oxazolylmethoxy]benzyloxyimino]-8-phenyloctanoic acid] |  | 
4 | 95 to 96 °C | Cc1oc(-c2ccccc2)nc1COc1ccc(CO/N=C(\CCCCC(N)=O)c2ccccc2)cc1 [Example 82, E-6-[4-(5-methyl-2-phenyl-4-oxazolylmethoxy)benzyloxyimino]-6-phenylhexanamide] |  | 
5 | 180 to 182 °C | O=C(O)CC/C(=N\OCc1ccc(OCc2cn3ccccc3n2)cc1)c1ccccc1 [Example 101, E-4-[4-(imidazo[1,2-a]pyridin-2-ylmethoxy)benzyloxyimino]-4-phenylbutyric acid] |  | 
6 | 99 to 100 °C | Cc1sc(-c2ccccc2)nc1COc1ccc(CO/N=C(\CCC(=O)O)c2ccccc2)cc1 [Example 91, E-4-[4-(5-methyl-2-phenyl-4-thiazolylmethoxy)benzyloxyimino]-4-phenylbutyric acid] |  | 
7 | 205 to 206 °C (dec.) | Cc1oc(-c2ccccc2)nc1COc1ccc(CO/N=C(\C(=O)O)c2ccc(-c3ccsc3)cc2)cc1 [Example 30, Z-2-[4-(5-methyl-2-phenyl-4-oxazolylmethoxy)benzyloxyimino]-2-[4-(3-thienyl)phenyl]acetic acid] |  | 
8 | 150 to 151 °C (dec.) | Cc1oc(-c2ccccc2)nc1COc1ccc(CO/N=C(/C(=O)O)c2ccc(F)cc2)cc1 [Example 16, E-2-(4-fluorophenyl)-2-[4-(5-methyl-2-phenyl-4-oxazolylmethoxy)benzyloxyimino]acetic acid] |  | 
9 |  | Cc1oc(-c2ccccc2)nc1COc1ccc(CO/N=C(\C(=O)O)c2ccc(Br)cc2)cc1 [Example 10, Z-2-(4-bromophenyl)-2-[4-(5-methyl-2-phenyl-4-oxazolylmethoxy)benzyloxyimino]acetic acid] | 45% | 36%
10 | 183 to 184 °C | COc1ccc(/C(=N/OCc2ccc(OCc3nc(-c4ccccc4)oc3C)cc2)C(=O)O)cc1 [Example 24, Z-2-(4-methoxyphenyl)-2-[4-(5-methyl-2-phenyl-4-oxazolylmethoxy)benzyloxyimino]acetic acid] |  | 
11 | 101 to 102 °C | Cc1oc(-c2cccs2)nc1COc1ccc(CO/N=C(\CCCCC(=O)O)c2ccccc2)cc1 [Example 135, E-6-[4-[5-methyl-2-(2-thienyl)-4-oxazolylmethoxy]benzyloxyimino]-6-phenylhexanoic acid] |  | 
12 | 91 to 92 °C | O=C(O)CCCC/C(=N\OCc1ccc(OCc2nc(-c3ccccc3)no2)cc1)c1ccccc1 [Example 138, E-6-phenyl-6-[4-(3-phenyl-1,2,4-oxadiazol-5-ylmethoxy)benzyloxyimino]hexanoic acid] |  | 
